Test results as given in patent publication US20100152259A1 (Merck & Co Inc., priority 2006, published 2010).

The molecules below were run on rabbit aortic slices (assay: vessel relaxation assay (tissue-based, rabbit aortic slices)). Conditions: Oryctolagus cuniculus.
Assay type: cell-based
`CCCCc1nc(Cl)c(C(=O)OC(C)OC(=O)OCCCC[C@H](CO[N+](=O)[O-])O[N+](=O)[O-])n1Cc1ccc(-c2ccccc2-c2nn[nH]n2)cc1` (single isomer, unassigned) [Compound 2] gave an EC50 of 1 µM. `CCCCc1nc(Cl)c(C(=O)OCCOCCO[N+](=O)[O-])n1Cc1ccc(-c2ccccc2-c2nn[nH]n2)cc1` [Compound 1, reference compound] showed an EC50 of 6 µM. `CCCCc1nc(Cl)c(C(=O)OC(C)OC(=O)OCCOCC(CO[N+](=O)[O-])O[N+](=O)[O-])n1Cc1ccc(-c2ccccc2-c2nnn[nH]2)cc1` (stereo not drawn) [Compound 3] showed an EC50 of 5 µM. With `CCCCc1nc(Cl)c(C(=O)OC(C)OC(=O)OCCC(C)(C)CC(CO[N+](=O)[O-])O[N+](=O)[O-])n1Cc1ccc(-c2ccccc2-c2nnn[nH]2)cc1` (stereo not drawn) [Example 4, 1-[({[3,3-dimethyl-5,6-bis(nitrooxy)hexyl]oxy}carbonyl)oxy]ethyl 2-butyl-4-chloro-1-{[2′-(1H-tetrazol-5-yl)biphenyl-4-yl]methyl}-1H-imidazole-5-carboxylate] the EC50 was 1.1 µM. With `CCOc1nc2cccc(C(=O)OC(C)(C)OC(=O)OCCCCC(CO[N+](=O)[O-])O[N+](=O)[O-])c2n1Cc1ccc(-c2ccccc2-c2nnn[nH]2)cc1` (stereo not drawn) [Example 8, 1-[({[5,6-bis(nitrooxy)hexyl]oxy}carbonyl)oxy]-1-methylethyl 2-ethoxy-1-{[2′-(1H-tetrazol-5-yl)biphenyl-4-yl]methyl}-1H-benzimidazole-7-carboxylate] the EC50 was 0.37 µM. In the case of `CCOc1nc2cccc(C(=O)OC(C)(C)OC(=O)OCCCC[C@H](CO[N+](=O)[O-])O[N+](=O)[O-])c2n1Cc1ccc(-c2ccccc2-c2nnn[nH]2)cc1` [Example 9, 1-[({[(5R)-5,6-bis(nitrooxy)hexyl]oxy}carbonyl)oxy]-1-methylethyl 2-ethoxy-1-{[2′-(1H-tetrazol-5-yl)biphenyl-4-yl]methy}-1H-benzimidazole-7-carboxylate], the EC50 is reported as 0.99 µM. `CCOc1nc2cccc(C(=O)OC(C)(C)OC(=O)OCCOCC(CO[N+](=O)[O-])O[N+](=O)[O-])c2n1Cc1ccc(-c2ccccc2-c2nnn[nH]2)cc1` (stereo not drawn) [Example 10] showed an EC50 of 2.38 µM. For `CCOc1nc2cccc(C(=O)OC(C)(C)OC(=O)OCCOC[C@H](CO[N+](=O)[O-])O[N+](=O)[O-])c2n1Cc1ccc(-c2ccccc2-c2nnn[nH]2)cc1` [Example 11, 1-{[(2-{[(2R)-2,3-bis(nitrooxy)propyl]oxy}ethoxy)carbonyl]oxy}-1-methylethyl 2-ethoxy-1-{[2′-(1H-tetrazol-5-yl)biphenyl-4-yl]methyl}-1H-benzimidazole-7-carboxylate], the EC50 was 2.3 µM. Molecule `CCOc1nc2cccc(C(=O)OC(C)(C)OC(=O)OCC[C@@H](CO[N+](=O)[O-])O[N+](=O)[O-])c2n1Cc1ccc(-c2ccccc2-c2nnn[nH]2)cc1` [Example 12, 1-[({[(3S)-3,4-bis(nitrooxy)butyl]oxy}carbonyl)oxy]-1-methylethyl 2-ethoxy-1-{[2′-(1H-tetrazol-5-yl)biphenyl-4-yl]methyl}-1H-benzimidazole-7-carboxylate] has an EC50 of 3.73 µM.
